Tests used:
Type in all cases: biochemical
JAK1 kinase domain = JAK1 kinase domain (Homo sapiens (Human), UniProt P23458); experiment: JAK1 inhibition assay (Caliper LabChip, isolated kinase domain); settings: 25 uM ATP, 1.5 nM JAK1; read-out: JAK1 enzymatic activity (Ki)
Text: (§1) The catalytically active kinase domain of human JAK1, JAK2, JAK3 or TYK2 was purified from extracts of SF9 insect cells infected with a recombinant baculovirus expression vector encoding the human JAK1, JAK2, JAK3 or TYK2 kinase domains (JAK1 amino acid residues N852-D1154 according to the numbering of GenBank sequence accession number P23458, JAK2 amino acid residues D812-G1132 according to the numbering of GenBank sequence accession number NP_004963.1; JAK3 amino acid residues S783-S1124 according to the numbering of GenBank sequence accession number P52333, and TYK2 amino acid residues N873-C1187 according to the numbering of GenBank sequence accession number P29597). The activity of the JAK1, JAK2, JAK3 or TYK2 kinase domains can be measured by a number of direct and indirect methods, including quantification of phosphorylation of peptide substrates derived from the human JAK3 protein (Saltzman et al., Biochem. Biophys. Res. Commun. 246:627-633 (2004)). The activity of the JAK1, JAK2, JAK3 or TYK2 kinase domains was measured in vitro by monitoring phosphorylation of JAK3 derived peptides using the Caliper LabChip technology (see Examples).
(§2) The activity of the isolated JAK1, JAK2 or TYK2 kinase domain was measured by monitoring phosphorylation of a peptide derived from JAK3 ([…] fluorescently labeled on the N-terminus with 5-carboxyfluorescein using the Caliper LabChip technology (Caliper Life Sciences, Hopkinton, Mass.). […] Reactions were incubated at 22° C. in 384-well polypropylene microtiter plates for 30 minutes and then stopped by addition of 25 uL of an EDTA containing solution (100 mM Hepes pH 7.2, 0.015% Brij-35, 150 mM EDTA), resulting in a final EDTA concentration of 50 mM. After termination of the kinase reaction, the proportion of phosphorylated product was determined as a fraction of total peptide substrate using the Caliper LabChip 3000 according to the manufacturer's specifications. Ki values were then determined using the Morrison tight binding model. Morrison, J. F., Biochim. Biophys. Acta. 185:269-296 (1969); William, J. W. and Morrison, J. F., Meth. Enzymol., 63:437-467 (1979).

JAK2 kinase domain = JAK2 kinase domain (Homo sapiens (Human), UniProt O60674); experiment: JAK2 inhibition assay (Caliper LabChip, isolated kinase domain); settings: 25 uM ATP, 0.2 nM JAK2; read-out: JAK2 enzymatic activity (Ki)
Chain of JAK2 kinase domain (O60674 812-1132): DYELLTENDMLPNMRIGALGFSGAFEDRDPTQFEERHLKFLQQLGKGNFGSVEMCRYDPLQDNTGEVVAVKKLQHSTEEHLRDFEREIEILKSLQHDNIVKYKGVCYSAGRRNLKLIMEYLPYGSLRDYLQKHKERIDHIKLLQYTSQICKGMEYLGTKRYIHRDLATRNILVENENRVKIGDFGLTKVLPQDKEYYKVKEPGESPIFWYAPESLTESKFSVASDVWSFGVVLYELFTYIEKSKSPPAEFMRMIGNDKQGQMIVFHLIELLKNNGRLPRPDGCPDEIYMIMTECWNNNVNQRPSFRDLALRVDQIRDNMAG
Text: as §1, §2

TYK2 kinase domain = TYK2 kinase domain (Homo sapiens (Human), UniProt P29597); experiment: TYK2 inhibition assay (Caliper LabChip, isolated kinase domain); settings: 25 uM ATP, 1 nM TYK2; read-out: TYK2 enzymatic activity (Ki)
Chain of TYK2 kinase domain (P29597 873-1187): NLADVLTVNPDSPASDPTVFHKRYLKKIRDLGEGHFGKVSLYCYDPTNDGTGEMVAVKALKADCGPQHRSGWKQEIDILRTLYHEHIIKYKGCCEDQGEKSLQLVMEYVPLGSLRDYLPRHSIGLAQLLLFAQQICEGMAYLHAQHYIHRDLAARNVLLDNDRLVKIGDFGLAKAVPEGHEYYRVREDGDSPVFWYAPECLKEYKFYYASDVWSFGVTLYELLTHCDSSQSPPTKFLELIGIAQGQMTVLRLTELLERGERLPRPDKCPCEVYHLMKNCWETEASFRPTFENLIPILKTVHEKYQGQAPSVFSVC
Text: as §1, §2

JAK3 kinase domain = JAK3 kinase domain (Homo sapiens (Human), UniProt P52333); experiment: JAK3 inhibition assay (Caliper LabChip, isolated kinase domain); settings: 5 uM ATP, 5 nM JAK3; read-out: JAK3 enzymatic activity (Ki)
Chain of JAK3 kinase domain (P52333 783-1124): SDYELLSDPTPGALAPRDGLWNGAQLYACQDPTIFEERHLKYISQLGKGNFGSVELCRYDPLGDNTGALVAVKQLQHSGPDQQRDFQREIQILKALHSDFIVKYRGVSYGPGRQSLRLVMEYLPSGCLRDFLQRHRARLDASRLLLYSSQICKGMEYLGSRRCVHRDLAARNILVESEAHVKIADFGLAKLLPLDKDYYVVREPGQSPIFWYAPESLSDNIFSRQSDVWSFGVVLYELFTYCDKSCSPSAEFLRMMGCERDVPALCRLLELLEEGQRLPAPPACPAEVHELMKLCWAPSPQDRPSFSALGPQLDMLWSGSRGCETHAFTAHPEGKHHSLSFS
Text: as §1, with “Previous studies have shown that the isolated kinase domains of human JAK1, JAK2, JAK3 or TYK2 phosphorylate peptide substrates in in vitro kinase assays (Saltzman et al., Biochem. Biophys. Res. Commun. 246:627-633 (2004)). The catalytically” for “The catalytically”
as §2, with “JAK3” for “JAK1, JAK2 or TYK2”

Chain of JAK1 kinase domain (P23458 852-1154): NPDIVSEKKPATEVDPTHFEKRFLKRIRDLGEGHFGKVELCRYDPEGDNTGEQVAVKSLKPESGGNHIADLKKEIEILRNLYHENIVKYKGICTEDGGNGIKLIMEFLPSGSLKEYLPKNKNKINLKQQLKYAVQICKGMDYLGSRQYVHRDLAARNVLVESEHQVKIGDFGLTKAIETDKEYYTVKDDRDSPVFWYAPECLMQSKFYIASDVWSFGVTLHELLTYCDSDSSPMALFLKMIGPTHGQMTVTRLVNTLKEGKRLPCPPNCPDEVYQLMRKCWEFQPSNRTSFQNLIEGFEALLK

Row | SMILES | Ki (JAK1 kinase domain) [nM] | Ki (JAK2 kinase domain) [nM] | Ki (TYK2 kinase domain) [nM] | Ki (JAK3 kinase domain) [nM]
1 | COc1ccc(Cl)cc1-c1c(NC(=O)c2cnn3cccnc23)cnn1CCO [Example 109, N-(5-(5-chloro-2-methoxyphenyl)-1-(2-hydroxyethyl)-1H-pyrazol-4-yl)pyrazolo[1,5-a]pyrimidine-3-carboxamide] | 4.4 | 1 | 5.6 | 18
2 | Cc1cc(NC(=O)c2cnn3cccnc23)n(-c2cc(Cl)ccc2Cl)n1 [Example 41, N-(1-(2,5-dichlorophenyl)-3-methyl-1H-pyrazol-5-yl)pyrazolo[1,5-a]pyrimidine-3-carboxamide] | 35.1 | 3.3 | 104 | 73.9
3 | COc1ccc(Cl)cc1-c1nc(C)sc1NC(=O)c1cnn2cccnc12 [Example 170, N-(4-(5-chloro-2-methoxyphenyl)-2-methylthiazol-5-yl)pyrazolo[1,5-a]pyrimidine-3-carboxamide] | 0.7 | 0.4 | 2.1 | 13
4 | Cc1cc(NC(=O)c2cnn3cccnc23)n(-c2ccccc2Br)n1 [Example 44, N-(1-(2-bromophenyl)-3-methyl-1H-pyrazol-5-yl)pyrazolo[1,5-a]pyrimidine-3-carboxamide] | 131 | 18 | 480 | 140
5 | COc1ncc(C#N)cc1-c1n[nH]cc1NC(=O)c1cnn2cccnc12 [Example 158, N-(3-(5-Cyano-2-methoxypyridin-3-yl)-1H-pyrazol-4-yl)pyrazolo[1,5-a]pyrimidine-3-carboxamide] | 4.8 | 1.5 | 6.6 | 53
6 | O=C(Nc1ccncc1-c1cccc(F)c1)c1cnn2cccnc12 [Example 63, N-(3-(3-fluorophenyl)pyridin-4-yl)pyrazolo[1,5-a]pyrimidine-3-carboxamide] | 153 | 23 | 140 | 200
7 | COc1cnc(C(F)(F)F)cc1-c1nn(CC(C)(C)O)cc1NC(=O)c1cnn2cccnc12 [Example 143, N-(1-(2-hydroxy-2-methylpropyl)-3-(5-methoxy-2-(trifluoromethyl)pyridin-4-yl)-1H-pyrazol-4-yl)pyrazolo[1,5-a]pyrimidine-3-carboxamide] | 12 | 38.5 | 350 | 1500
8 | O=C(Nc1ccnn1-c1ccc(Cl)cc1)c1cnn2cccnc12 [Example 54, N-(1-(4-chlorophenyl)-1H-pyrazol-5-yl)pyrazolo[1,5-a]pyrimidine-3-carboxamide] | 1200 | 159 | 850 | 
9 | COc1ccc(C#N)cc1-c1nn(Cc2ncnn2C)cc1NC(=O)c1cnn2cccnc12 [Example 155] | 4.2 | 2.6 | 65 | 210
10 | O=C(Nc1ccnn1-c1ccccc1Cl)c1cnn2cccnc12 [Example 51, N-(1-(2-chlorophenyl)-1H-pyrazol-5-yl)pyrazolo[1,5-a]pyrimidine-3-carboxamide] | 83.7 | 15.2 | 98 | 150

Next, values leading:

Row | Ki (JAK1 kinase domain) [nM] | Ki (JAK2 kinase domain) [nM] | Ki (TYK2 kinase domain) [nM] | Ki (JAK3 kinase domain) [nM] | SMILES
11 | 2.3 | 6.2 | 47 | 710 | COc1ccc(F)cc1-c1nn(CC2(O)CCOCC2)cc1NC(=O)c1cnn2cccnc12 [Example 364, N-(3-(5-fluoro-2-methoxyphenyl)-1-((4-hydroxytetrahydro-2H-pyran-4-yl)methyl)-1H-pyrazol-4-yl)pyrazolo[1,5-a]pyrimidine-3-carboxamide]
12 | 1.6 | 5.8 | 14 | 780 | COc1ncc(Cl)cc1-c1nn(CC(=O)N(C)C)cc1NC(=O)c1cnn2cccnc12 [Example 499, N-(3-(5-chloro-2-methoxypyridin-3-yl)-1-(2-(dimethylamino)-2-oxoethyl)-1H-pyrazol-4-yl)pyrazolo[1,5-a]pyrimidine-3-carboxamide]
13 | 85.9 | 26.3 | 410 | 240 | CC1CCCCN1c1nn(CC(C)(C)O)cc1NC(=O)c1cnn2cccnc12 (centres unmarked) [Example 379, N-(1-(2-hydroxy-2-methylpropyl)-3-(2-methylpiperidin-1-yl)-1H-pyrazol-4-yl)pyrazolo[1,5-a]pyrimidine-3-carboxamide]
14 | 1 | 4.2 | 46 | 690 | COc1ccc(C#N)cc1-c1nn(CC2(O)CCCC2)cc1NC(=O)c1cnn2cccnc12 [Example 359, N-(3-(5-cyano-2-methoxyphenyl)-1-((1-hydroxycyclopentyl)methyl)-1H-pyrazol-4-yl)pyrazolo[1,5-a]pyrimidine-3-carboxamide]
15 | 0.5 | 2.5 | 10 | 170 | COc1ccc(Cl)cc1-c1nn(CC(=O)N2CC=CCC2)cc1NC(=O)c1cnn2cccnc12 [Example 300, N-(3-(5-chloro-2-methoxyphenyl)-1-(2-(5,6-dihydropyridin-1(2H)-yl)-2-oxoethyl)-1H-pyrazol-4-yl)pyrazolo[1,5-a]pyrimidine-3-carboxamide]
16 | 0.7 | 3.1 | 9.1 | 270 | COc1ccc(Cl)cc1-c1nn(CC(=O)N2CCCC2C)cc1NC(=O)c1cnn2cccnc12 (centres unmarked) [Example 283, N-(3-(5-chloro-2-methoxyphenyl)-1-(2-(2-methylpyrrolidin-1-yl)-2-oxoethyl)-1H-pyrazol-4-yl)pyrazolo[1,5-a]pyrimidine-3-carboxamide]
17 | 176 | 31.3 | 230 | 390 | N#CC1CCN(c2n[nH]cc2NC(=O)c2cnn3cccnc23)CC1 [Example 395, N-(3-(4-cyanopiperidin-1-yl)-1H-pyrazol-4-yl)pyrazolo[1,5-a]pyrimidine-3-carboxamide]
18 | 3.8 | 12.5 | 76 | 210 | CCOc1ccc(Cl)cc1-c1nn([C@H]2CCCC[C@@H]2O)cc1NC(=O)c1cnn2cccnc12 (stereo in doubt) [Example 414, N-(3-(5-chloro-2-ethoxyphenyl)-1-((1S,2S)-2-hydroxycyclohexyl)-1H-pyrazol-4-yl)pyrazolo[1,5-a]pyrimidine-3-carboxamide And N-(3-(5-chloro-2-ethoxyphenyl)-1-((1R,2R)-2-hydroxycyclohexyl)-1H-pyrazol-4-yl)pyrazolo[1,5-a]pyrimidine-3-carboxamide]
